From ChEMBL document CHEMBL1201862, “PubChem BioAssay data set” (2004)
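96-well plates; 48 h exposure; 5 concentrations. Endpoints by linear interpolation between flanking doses. Not reached: highest tested concentration assigned. GI50: concentration for 50% inhibition of growth.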 Calls of active or inactive are those of the source. Cut-off read from the data, not from the text of the source: active = GI50 up to about 1.1 µM and inactive = higher.

How the values were obtained:
Test in all cases: DTP human tumour cell line panel, 48 h
PC-3 = system: PC-3
SNB-75 = system: SNB-75
SK-MEL-2 = system: SK-MEL-2
RPMI-8226 = system: RPMI-8226
NCI-H522 = system: NCI-H522
SF-295 = system: SF-295
SK-MEL-28 = system: SK-MEL-28
TK-10 = system: TK-10
NCI-H460 = system: NCI-H460
A549 = system: A549
M14 = system: M14
MOLT-4 = system: MOLT-4
SF-539 = system: SF-539
SR = system: SR
SF-268 = system: SF-268
NCI/ADR-RES = system: NCI/ADR-RES
OVCAR-8 = system: OVCAR-8
SNB-19 = system: SNB-19
U-251 = system: U-251
ACHN = system: ACHN
MDA-MB-231 = system: MDA-MB-231
UO-31 = system: UO-31
MCF7 = system: MCF7
KM12 = system: KM12
SW-620 = system: SW-620
IGROV-1 = system: IGROV-1
DU-145 = system: DU-145
T47D = system: T47D
HCT-15 = system: HCT-15
HCC 2998 = system: HCC 2998
HOP-92 = system: HOP-92
UACC-62 = system: UACC-62
HCT-116 = system: HCT-116
HOP-62 = system: HOP-62
NCI-H226 = system: NCI-H226
OVCAR-5 = system: OVCAR-5
Hs-578T = system: Hs-578T
BT-549 = system: BT-549
HT-29 = system: HT-29
OVCAR-4 = system: OVCAR-4
NCI-H23 = system: NCI-H23
SN12C = system: SN12C
EKVX = system: EKVX
CAKI-1 = system: CAKI-1
SK-MEL-5 = system: SK-MEL-5
Malme-3M = system: Malme-3M
786-0 = system: 786-0
MDA-N = system: MDA-N
MDA-MB-435 = system: MDA-MB-435
CCRF-CEM = system: CCRF-CEM
RXF 393 = system: RXF 393
COLO 205 = system: COLO 205
K562 = system: K562
UACC-257 = system: UACC-257
SK-OV-3 = system: SK-OV-3
A498 = system: A498
OVCAR-3 = system: OVCAR-3
LOX IMVI = system: LOX IMVI
HL-60 = system: HL-60

Measured: GI50

CC1(C)COCN1COC1CCCCC1
inactive: PC-3 > 100 µM | SNB-75 5.08 µM | SK-MEL-2 > 100 µM | RPMI-8226 > 100 µM | NCI-H522 > 100 µM | SF-295 > 100 µM | SK-MEL-28 > 100 µM | TK-10 > 100 µM | NCI-H460 > 100 µM | A549 > 100 µM | M14 > 100 µM | MOLT-4 24.1 µM | SF-539 > 100 µM | SR 20.1 µM | SF-268 > 100 µM | NCI/ADR-RES > 100 µM | OVCAR-8 > 100 µM | SNB-19 > 100 µM | U-251 > 100 µM | ACHN > 100 µM | MDA-MB-231 > 100 µM | UO-31 > 100 µM | MCF7 > 100 µM | KM12 > 100 µM | SW-620 > 100 µM | IGROV-1 > 100 µM | DU-145 > 100 µM | T47D > 100 µM | HCC 2998 > 100 µM | HOP-92 > 100 µM | UACC-62 > 100 µM | HCT-116 > 100 µM | HOP-62 > 100 µM | NCI-H226 > 100 µM | OVCAR-5 > 100 µM | Hs-578T > 100 µM | BT-549 > 100 µM | HT-29 > 100 µM | OVCAR-4 > 100 µM | NCI-H23 > 100 µM | SN12C > 100 µM | EKVX > 100 µM | CAKI-1 > 100 µM | SK-MEL-5 > 100 µM | Malme-3M > 100 µM | 786-0 > 100 µM | MDA-N > 100 µM | MDA-MB-435 > 100 µM | CCRF-CEM 4.91 µM | RXF 393 > 100 µM | COLO 205 > 100 µM | K562 92.7 µM | UACC-257 > 100 µM | SK-OV-3 > 100 µM | A498 > 100 µM | OVCAR-3 > 100 µM
> 100 µM: HCT-15

COc1ccc(/C=N\N(C)Cc2cccc3ccsc23)cc1
inactive: PC-3 > 100 µM | SNB-75 > 100 µM | NCI-H522 > 100 µM | SF-295 > 100 µM | SK-MEL-28 > 100 µM | TK-10 > 100 µM | NCI-H460 > 100 µM | A549 > 100 µM | M14 > 100 µM | MOLT-4 46.8 µM | SR 90.2 µM | SF-268 > 100 µM | NCI/ADR-RES > 100 µM | OVCAR-8 > 100 µM | SNB-19 > 100 µM | U-251 > 100 µM | ACHN > 100 µM | MDA-MB-231 > 100 µM | UO-31 > 100 µM | MCF7 > 100 µM | LOX IMVI > 100 µM | KM12 > 100 µM | SW-620 > 100 µM | IGROV-1 > 100 µM | DU-145 > 100 µM | T47D > 100 µM | HCC 2998 > 100 µM | HOP-92 > 100 µM | HL-60 > 100 µM | UACC-62 > 100 µM | HCT-116 72.4 µM | HOP-62 > 100 µM | NCI-H226 > 100 µM | OVCAR-5 > 100 µM | Hs-578T > 100 µM | BT-549 > 100 µM | HT-29 49.2 µM | OVCAR-4 92.5 µM | NCI-H23 60.4 µM | SN12C > 100 µM | EKVX > 100 µM | CAKI-1 > 100 µM | SK-MEL-5 28.6 µM | Malme-3M > 100 µM | 786-0 > 100 µM | MDA-N 70.6 µM | MDA-MB-435 > 100 µM | CCRF-CEM > 100 µM | RXF 393 > 100 µM | COLO 205 > 100 µM | K562 54.8 µM | UACC-257 48.9 µM | SK-OV-3 > 100 µM | A498 > 100 µM | OVCAR-3 33.6 µM
92.9 µM: HCT-15

CNC(=O)OCC1=C(COC(=O)NC)CN(c2ccc(OC)cc2)C1
inactive: PC-3 > 100 µM | SNB-75 > 100 µM | SK-MEL-2 > 100 µM | RPMI-8226 > 100 µM | SF-295 > 100 µM | SK-MEL-28 > 100 µM | TK-10 85.7 µM | NCI-H460 > 100 µM | A549 > 100 µM | M14 > 100 µM | MOLT-4 > 100 µM | SF-539 > 100 µM | SR > 100 µM | SF-268 > 100 µM | NCI/ADR-RES > 100 µM | OVCAR-8 > 100 µM | SNB-19 > 100 µM | U-251 > 100 µM | ACHN > 100 µM | MDA-MB-231 > 100 µM | UO-31 80.9 µM | MCF7 > 100 µM | LOX IMVI > 100 µM | KM12 > 100 µM | SW-620 > 100 µM | IGROV-1 > 100 µM | DU-145 > 100 µM | T47D > 100 µM | HCC 2998 > 100 µM | HOP-92 > 100 µM | HL-60 > 100 µM | UACC-62 > 100 µM | HCT-116 > 100 µM | HOP-62 > 100 µM | NCI-H226 4.2 µM | OVCAR-5 > 100 µM | Hs-578T > 100 µM | BT-549 > 100 µM | HT-29 > 100 µM | OVCAR-4 > 100 µM | NCI-H23 > 100 µM | SN12C > 100 µM | EKVX > 100 µM | SK-MEL-5 > 100 µM | Malme-3M > 100 µM | 786-0 > 100 µM | MDA-N > 100 µM | MDA-MB-435 > 100 µM | CCRF-CEM > 100 µM | RXF 393 > 100 µM | COLO 205 > 100 µM | K562 > 100 µM | UACC-257 > 100 µM | SK-OV-3 > 100 µM | A498 1.9 µM | OVCAR-3 > 100 µM
> 100 µM: HCT-15

S=C(S)N1CCN(c2cccc(Cl)c2)CC1
> 100 µM: HCT-15
inactive: PC-3 66.8 µM | SNB-75 69.3 µM | SK-MEL-2 85.5 µM | RPMI-8226 47.4 µM | NCI-H522 > 100 µM | SF-295 > 100 µM | SK-MEL-28 39.8 µM | TK-10 > 100 µM | A549 > 100 µM | M14 > 100 µM | MOLT-4 78.3 µM | SF-539 > 100 µM | SR 39.4 µM | SF-268 76.4 µM | NCI/ADR-RES > 100 µM | OVCAR-8 > 100 µM | SNB-19 > 100 µM | U-251 44.3 µM | ACHN > 100 µM | MDA-MB-231 68.9 µM | UO-31 30.8 µM | MCF7 > 100 µM | LOX IMVI 36.7 µM | KM12 75.3 µM | SW-620 65.3 µM | IGROV-1 > 100 µM | DU-145 > 100 µM | T47D 34.6 µM | HCC 2998 52.6 µM | HOP-92 80.7 µM | HL-60 34.9 µM | UACC-62 > 100 µM | HCT-116 41.4 µM | HOP-62 82.8 µM | OVCAR-5 > 100 µM | Hs-578T > 100 µM | BT-549 86.5 µM | HT-29 > 100 µM | NCI-H23 > 100 µM | SN12C > 100 µM | EKVX > 100 µM | CAKI-1 42.1 µM | SK-MEL-5 27.9 µM | Malme-3M > 100 µM | 786-0 73.1 µM | MDA-N > 100 µM | MDA-MB-435 > 100 µM | CCRF-CEM 34.9 µM | RXF 393 > 100 µM | COLO 205 76.4 µM | K562 48.9 µM | UACC-257 85.1 µM | A498 > 100 µM | OVCAR-3 > 100 µM

CCCCCCCCCCOCCOCCOCCOCCCCC(O)CCCCCCCC1=C[C@H](C)OC1=O (stereo partly drawn)
active: RPMI-8226 0.933 µM | SR 0.671 µM | HL-60 0.863 µM | BT-549 0.959 µM | NCI-H23 0.774 µM | SK-MEL-5 0.76 µM
12.7 µM: HCT-15
inactive: PC-3 9.98 µM | SNB-75 11.8 µM | SK-MEL-2 12.5 µM | NCI-H522 6.34 µM | SF-295 9.89 µM | SK-MEL-28 12.2 µM | TK-10 10.2 µM | NCI-H460 7.89 µM | A549 9.31 µM | M14 14.3 µM | MOLT-4 2.83 µM | SF-539 12.1 µM | SF-268 10.9 µM | NCI/ADR-RES 7.41 µM | OVCAR-8 13.4 µM | SNB-19 13.8 µM | U-251 11.1 µM | ACHN 11.7 µM | MDA-MB-231 14.1 µM | UO-31 7.78 µM | MCF7 5.62 µM | LOX IMVI 4.98 µM | KM12 10.6 µM | SW-620 12.1 µM | IGROV-1 14.4 µM | DU-145 14.7 µM | T47D 8.39 µM | HCC 2998 13.2 µM | HOP-92 14.2 µM | UACC-62 13.2 µM | HCT-116 9.53 µM | NCI-H226 10.9 µM | OVCAR-5 15.7 µM | Hs-578T 14.8 µM | HT-29 10.7 µM | OVCAR-4 12.6 µM | SN12C 13.3 µM | EKVX 10.7 µM | CAKI-1 14.1 µM | Malme-3M 19.6 µM | 786-0 18.6 µM | MDA-N 11.6 µM | MDA-MB-435 12 µM | CCRF-CEM 2.79 µM | RXF 393 10.9 µM | COLO 205 15.2 µM | K562 4.02 µM | UACC-257 9.14 µM | SK-OV-3 16.5 µM | A498 13.6 µM | OVCAR-3 16.2 µM
